Consider 17 compounds from US8017612B2, “Piperazine compound and use thereof as a HCV polymerase inhibitor” (priority 2006, dated 2011).

SMILES strings stand for the structures. Counter-ions that a name gives are not always drawn.

In assay [1] the target is T1, HCV polymerase (NS5B) type 1b (Hepatitis C virus genotype 1b, UniProt P26663).
T1 construct: a region encoding NS5B (J Virol 1991 March, 65(3), 1105-13, 544 amino acids after deletion of 47 amino acids on the C-terminal); 6xHis (C); made in house; host or cells: Escherichia coli
The assay is described as follows: Assay of enzyme (HCV polymerase) inhibitory activity, type 1b enzyme. It counts as biochemical, HCV BK strain (type 1b). The method, boiled down:
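IC50 derived from [3H]UTP incorporation into TCA-insoluble RNA, compared with and without test compound. Reaction (25 °C, 60 min, Tris pH 7.5, 5 mM MgCl2): E. coli-expressed 1b NS5B Δ47 with His tag at 0.5 μg/ml, 5 μg/ml run-off substrate RNA, ATP/GTP/CTP 50 μM, UTP 2 μM.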

In assay [2] the target is T2, HCV polymerase (NS5B) type 1a (Hepatitis C virus genotype 1a, UniProt P26664).
T2 construct: made in house; host or cells: Escherichia coli (by the 'similar method' of the 1b enzyme)
The assay is described as follows: Assay of enzyme (HCV polymerase) inhibitory activity, type 1a enzyme. It counts as biochemical, HCV type 1a (cloned from the blood of patients). The method, boiled down: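 Reactions ran 60 min at 25° C in 20 mM Tris-HCl pH 7.5, 5 mM MgCl2, 50 mM NaCl, holding genotype 1a NS5B (1.5 μg/ml, Δ47 C-terminus, 6His), substrate RNA 5 μg/ml, UTP 2 μM with tritiated UTP and other NTPs 50 μM. IC50 derived from incorporated radiolabel in filter-trapped RNA relative to uninhibited reaction.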

Where [3] appears, read: HCV polymerase inhibitory activity (IC50), 1b, type 1b enzyme 0.5 μg/ml, 25° C., 60 min.
Where [4] appears, read: HCV polymerase inhibitory activity (IC50), 1a, type 1a enzyme 1.5 μg/ml, 25° C., 60 min.
[5] abbreviates: HCV polymerase inhibitory activity IC50, 1b, type 1b enzyme.
Setting [6] is: HCV polymerase inhibitory activity IC50, 1a, type 1a enzyme.

For orientation: IC50 means the concentration that gives 50% inhibition. Turning to `CC(C)c1ccc(CNC(=O)[C@H]2CN(c3ccc(C(=O)O)cn3)CCN2S(=O)(=O)c2ccc(C(F)(F)F)cc2)cc1` [Example 327, 6-[(R)-3-(4-isopropyl-benzylcarbamoyl)-4-(4-trifluoromethyl-benzenesulfonyl)-piperazin-1-yl]-nicotinic acid trifluoroacetate], the IC50 in assay [1] (setting [3]) and in assay [2] (setting [4]) was less than 100 nM each time.
In the case of `O=C(NCc1ccc(C2CC2)cc1)[C@H]1CN(C(=O)Cc2ccncc2)CCN1S(=O)(=O)c1ccc(OC(F)(F)F)cc1` [Example 412, (R)-4-(2-pyridin-4-yl-acetyl)-1-(4-trifluoromethoxy-benzenesulfonyl)-piperazine-2-carboxylic acid 4-cyclopropyl-benzylamide], the IC50 in assay [1] (setting [3]) was 100 to 1000 nM; in assay [2] (setting [4]) it was less than 100 nM.
Take `O=C(NCc1ccc(OC(F)(F)F)cc1)[C@H]1CN(c2nc3cncnc3s2)CCN1S(=O)(=O)c1ccc(OC(F)(F)F)cc1` [Example 885, (R)-4-thiazolo[5,4-d]pyrimidin-2-yl-1-(4-trifluoromethoxy-benzenesulfonyl)-piperazine-2-carboxylic acid 4-trifluoromethoxy-benzylamide]: the IC50 in assay [1] (setting [5]) and in assay [2] (setting [6]) was less than 100 nM each time.
As for `CCCC(CCC)c1ccc(CNC(=O)C2CN(C(C)=O)CCN2S(=O)(=O)c2ccc(C(C)C)cc2)cc1` (stereo not shown) [Example 140, 4-acetyl-1-(4-isopropyl-benzenesulfonyl)-piperazine-2-carboxylic acid 4-(1-propyl-butyl)-benzylamide], the IC50 in assay [1] (setting [3]) and in assay [2] (setting [4]) was more than 1000 nM each time.
In the case of `CCOC(=O)COc1ccc(NC(=O)N2CCN(S(=O)(=O)c3ccc(C(F)(F)F)cc3)[C@@H](C(=O)NCc3ccc(C(C)C)cc3)C2)cc1` [Example 245, (4-{[(R)-3-(4-isopropyl-benzylcarbamoyl)-4-(4-trifluoromethyl-benzenesulfonyl)-piperazine-1-carbonyl]-amino}-phenoxy)-acetic acid ethyl ester], the IC50 in assay [1] (setting [3]) was 100 to 1000 nM; in assay [2] (setting [4]), more than 1000 nM.
For the compound `CCCn1ccc(CNC(=O)[C@H]2CN(c3cnc4cncnc4n3)CCN2S(=O)(=O)c2ccc(OC(F)(F)F)cc2)cc1=O` [Example 680, (R)-4-pteridin-7-yl-1-(4-trifluoromethoxy-benzenesulfonyl)-piperazine-2-carboxylic acid (2-oxo-1-propyl-1,2-dihydro-pyridin-4-ylmethyl)-amide], the 50% inhibitory concentration (IC50) in assay [1] (setting [5]) was 100 to 1000 nM; in assay [2] (setting [6]), more than 1000 nM.
Turning to `O=C(NCc1ccc(OC(F)(F)F)cc1)[C@H]1CN(c2cnc3cncnc3n2)CCN1S(=O)(=O)c1ccc(Cl)s1` [Example 792, (R)-1-(5-chloro-thiophene-2-sulfonyl)-4-pteridin-7-yl-piperazine-2-carboxylic acid 4-trifluoromethoxy-benzylamide], the IC50 in assay [1] (setting [5]) and in assay [2] (setting [6]) was less than 100 nM in each case.
On to `O=C(NCc1ccc(OC(F)(F)F)cc1)[C@H]1CN(c2nc3nc(NCCO)ncc3s2)CCN1S(=O)(=O)c1ccc(OC(F)(F)F)cc1` [Example 946, (R)-4-[5-(2-hydroxy-ethylamino)-thiazolo[4,5-d]pyrimidin-2-yl]-1-(4-trifluoromethoxy-benzenesulfonyl)-piperazine-2-carboxylic acid 4-trifluoromethoxy-benzylamide], for which the IC50 in assay [1] (setting [5]) and in assay [2] (setting [6]) was less than 100 nM each time.
Take `O=C(NCC1CC1c1ccccc1)[C@H]1CN(c2cnc3cncnc3n2)CCN1S(=O)(=O)c1ccc(OC(F)(F)F)cc1` (stereo partly drawn) [Example 849, (R)-4-pteridin-7-yl-1-(4-trifluoromethoxy-benzenesulfonyl)-piperazine-2-carboxylic acid (2-phenyl-cyclopropylmethyl)-amide]: the results for the half-maximal inhibitory concentration (IC50) in assay [1] (setting [5]) and in assay [2] (setting [6]) were less than 100 nM and 100 to 1000 nM, respectively.
For `CCCc1ccc(CNC(=O)[C@H]2CN(c3cnc(C(=O)O)cn3)CCN2S(=O)(=O)c2ccc(Br)cc2)cc1` [Example 687, (R)-4-(4-bromo-benzenesulfonyl)-3-(4-propyl-benzylcarbamoyl)-3,4,5,6-tetrahydro-2H-[1,2′]bipyrazinyl-5′-carboxylic acid], the half-inhibitory concentration (IC50) in assay [1] (setting [5]) and in assay [2] (setting [6]) was less than 100 nM throughout.
For `CC(=O)N1CCN(S(=O)(=O)c2ccc(-c3ccccc3)cc2)C(C(=O)NCc2ccc(C(F)(F)F)cc2)C1` (stereo not shown) [Example 73, 4-acetyl-1-(biphenyl-4-sulfonyl)-piperazine-2-carboxylic acid 4-trifluoromethyl-benzylamide], the IC50 in assay [1] (setting [3]) and in assay [2] (setting [4]) was more than 1000 nM in each case.
On to `CC(C)c1ccc(CNC(=O)[C@H]2CN(C(=O)Nc3cccc(Cl)c3)CCN2S(=O)(=O)c2ccc(C(F)(F)F)cc2)cc1` [Example 270, (R)-4-(4-trifluoromethyl-benzenesulfonyl)-piperazine-1,3-dicarboxylic acid 1-[(3-chloro-phenyl)-amide] 3-(4-isopropyl-benzylamide)], for which the IC50 in assay [1] (setting [3]) is 100 to 1000 nM; in assay [2] (setting [4]), more than 1000 nM.
In the same order, the values of `CCCc1ccc(CNC(=O)[C@H]2CN(c3nc(C)c(CO)s3)CCN2S(=O)(=O)c2ccc(OC(F)(F)F)cc2)cc1` [Example 452, (R)-4-(5-hydroxymethyl-4-methyl-thiazol-2-yl)-1-(4-trifluoromethoxy-benzenesulfonyl)-piperazine-2-carboxylic acid 4-propyl-benzylamide] are less than 100 nM and less than 100 nM.
As for `Cc1c(Cl)c(=O)nc2sc(N3CCN(S(=O)(=O)c4ccc(OC(F)(F)F)cc4)[C@@H](C(=O)NCc4ccc(OC(F)(F)F)cc4)C3)nn12` [Example 1026, (R)-4-(6-chloro-5-methyl-7-oxo-7H-[1,3,4]thiadiazolo[3,2-a]pyrimidin-2-yl)-1-(4-trifluoromethoxy-benzenesulfonyl)-piperazine-2-carboxylic acid 4-trifluoromethoxy-benzylamide], the half-inhibitory concentration (IC50) in assay [1] (setting [5]) and in assay [2] (setting [6]) was less than 100 nM each time.
Regarding `CCCc1ccc(CNC(=O)[C@H]2CN(c3nc(C(F)(F)F)c(C(=O)OCC)s3)CCN2S(=O)(=O)c2ccc(OC(F)(F)F)cc2)cc1` [Example 444, 2-[(R)-3-(4-propyl-benzylcarbamoyl)-4-(4-trifluoromethoxy-benzenesulfonyl)-piperazin-1-yl]-4-trifluoromethyl-thiazole-5-carboxylic acid ethyl ester], the IC50 in assay [1] (setting [3]) and in assay [2] (setting [4]) was 100 to 1000 nM each time.
Turning to `CC(=O)N1CCN(S(=O)(=O)c2ccc(OC(F)(F)F)cc2)[C@@H](C(=O)NCC2CCCCC2)C1` [Example 643, (R)-4-acetyl-1-(4-trifluoromethoxy-benzenesulfonyl)-piperazine-2-carboxylic acid cyclohexylmethyl-amide], the IC50 in assay [1] (setting [3]) and in assay [2] (setting [4]) was more than 1000 nM throughout.
In the case of `CCCN1CC=C(CNC(=O)[C@H]2CN(c3cnc4cncnc4n3)CCN2S(=O)(=O)c2ccc(OC(F)(F)F)cc2)CC1` [Example 662, (R)-4-pteridin-7-yl-1-(4-trifluoromethoxy-benzenesulfonyl)-piperazine-2-carboxylic acid (1-propyl-1,2,3,6-tetrahydro-pyridin-4-ylmethyl)-amide], the IC50 is 100 to 1000 nM in assay [1] (setting [5]) and more than 1000 nM in assay [2] (setting [6]).
